Data from patent publication US6489098B1, “Means and methods for monitoring nucleoside reverse transcriptase inhibitor antiretroviral therapy and guiding therapeutic decisions in the treatment of HIV/AIDS” (ViroLogic, Inc., priority 1998, dated 2002).
“Also recorded” adds a separate entry of the source.

Key:
[1] = tested on: HIV-1 RT mutant resistance test vector 41 + 210 + 215; assay: Phenotypic susceptibility assay, site directed RTV 41 + 210 + 215; assay type: cell-based; settings: RTV with 41 + 210 + 215; 3 replicates
Experimental: (§1) Resistance tests were carried out with resistance test vectors using two host cell types. Resistance test vector viral particles were produced by a first host cell (the resistance test vector host cell) that was prepared by transfecting a packaging host cell with the resistance test vector and the packaging expression vector. The resistance test vector viral particles were then used to infect a second host cell (the target host cell) in which the expression of the indicator gene is measured.
(§2) The resistance test vectors containing a functional luciferase gene cassette were constructed and host cells were transfected with the resistance test vector DNA. The resistant test vectors contained patient-derived reverse transcriptase and protease sequences that were either susceptible or resistant to the antiretroviral agents, such as nucleoside reverse transcriptase inhibitors, non-nucleoside reverse transcriptase inhibitors and protease inhibitors. The resistance test vector viral particles produced by transfecting the resistance test vector DNA into host cells, either in the presence or absence of protease inhibitors, were used to infect target host cells grown either in the absence of NRTI or NNRTI or In the presence of increasing concentrations of the drug. The amount of luciferase activIty produced in infected target host cells in the presence of drug was compared to the amount of luciferase produced in infected target host cells in the absence of drug. Drug resistance was measured as the amount of drug required to inhibit by 50% the luciferase activity detected in the absence of drug (Inhibitory concentration 50%, IC50). The IC50 values were determined by plotting percent drug inhibition vs. log 10 drug concentration.
(§3) Host cells were seeded in 10-cm-diameter dishes and were transfected several days after plating with resistance test vector plasmid DNA and the envelope expression vector. Transfections were performed using a calcium-phosphate precipitation procedure. The cell culture media containing the DNA precipitate was replaced with fresh medium, from one to 24 hours, after transfection. Cell culture media containing resistance test vector viral particles was harvested one to four days after transfection and was passed through a […] filter before being stored at −80° C. HIV capsid protein (p24) levels in the harvested cell culture media were determined by an EIA method as described by the manufacturer (SIAC; Frederick, Md.). Before infection, target cells (293 and 293/T) were plated in cell culture media. Control infections were performed using cell culture media from mock transfections (no DNA) or transfections containing the resistance test vector plasmid DNA without the envelope expression plasmid. One to three or more days after infectIon the media was removed and cell lysis buffer (Promega) was added to each well. Cell lysates were assayed for luciferase activity (FIG. 3). The inhibitory effect of the drug was determined using the following equation:
(§4) % luciferase inhibition=1−(RLUluc[drug]÷RLUluc)×100
where RLUluc [drug] is the relative light unit of luciferase activity in infected cells in the presence of drug and RLUluc is the Relative Light Unit of luciferase activity in infected cells in the absence of drug. IC50 values were obtained from the sigmoidal curves that were generated from the data by plotting the percent inhibition of luciferase activity vs. the log 10 drug concentration. The drug inhibition curves are shown in (FIG. 3).
Genotypic changes that are observed to correlate with changes in phenotypic patterns of drug susceptibility are evaluated by construction of resistance test vectors containing the specific mutation on a defined, wild-type (drug susceptible) genetic background. Mutations may be incorporated alone and/or in combination with other known drug resistance mutations that are thought to modulate the susceptibility of HIV to a certain drug or class of drugs. […]

[2] = tested on: HIV-1 RT mutant resistance test vector M41L-A62V-T69SSA-T215Y-RTV; assay: Phenotypic susceptibility assay, site directed RTV M41L+A62V+T69SSA+T215Y; assay type: cell-based; settings: RTV with M41L+A62V+T69SSA+T215Y; addition of A62V to M41L+T69SSA+T215Y
Experimental: as §1, §2
as §3, with “Cell lysates were assayed for luciferase activity (FIG. 3).” left out
as §4
where RLUluc [drug] is the relative light unit of luciferase activity in infected cells in the presence of drug and RLUluc is the Relative Light Unit of luciferase activity in infected cells in the absence of drug. IC50 values were obtained from the sigmoidal curves that were generated from the data by plotting the percent inhibition of luciferase activity vs. the log 10 drug concentration.
Mutations may be incorporated alone and/or in combination with other known drug resistance mutations that are thought to modulate the susceptibility of HIV to a certain drug or class of drugs. Mutations are introduced into the resistance test vector through any of the widely known methods for site-directed mutagenesis. In one embodiment of this invention the mega-primer PCR method for site-directed mutagenesis is used.

[3] = tested on: HIV with RT Val75→Thr mutation; settings: cited from earlier work

**Q.** Which results are given for `Nc1nc(NC2CC2)c2ncn([C@H]3C=C[C@@H](CO)C3)c2n1` [ABC, abacavir]?
**A.** Average fold reduction in susceptibility [1]: 2.25 fold; effect on susceptibility (words) [2]: no effect on susceptibility

**Q.** What does the source list for `Cc1cn([C@H]2C[C@H](N=[N+]=[N-])[C@@H](CO)O2)c(=O)[nH]c1=O` [AZT, zidovudine]?
**A.** Average fold reduction in susceptibility [1]: 56.14 fold; effect on susceptibility (words) [2]: reduced AZT susceptibility more than the combination of M41L and T215Y mutations alone; also recorded: further reduction in susceptibility

**Q.** What does the source list for `Cc1cn([C@H]2C=C[C@@H](CO)O2)c(=O)[nH]c1=O` [d4T, stavudine]?
**A.** Average fold reduction in susceptibility [1]: 1.94 fold; effect on susceptibility (words) [2]: did reduce d4T susceptibility more than the T69SSA mutation alone; also recorded: further reduction in susceptibility; fold increase in IC50 [3]: seven-fold

**Q.** For `Nc1ccn([C@H]2CC[C@@H](CO)O2)c(=O)n1` [ddC, zalcitabine], which “Average fold reduction in susceptibility” value [1] is on record?
**A.** 1.36 fold

**Q.** And the “effect on susceptibility (words)” value [2]?
**A.** no effect on susceptibility

**Q.** What about the “susceptibility” value [3] of the same compound?
**A.** reduced susceptibility to both ddI and ddC

**Q.** With `O=c1[nH]cnc2c1ncn2[C@H]1CC[C@@H](CO)O1` [ddI, didanosine] as the compound, how does the “Average fold reduction in susceptibility” value [1] read?
**A.** 1.08 fold

**Q.** What about the “effect on susceptibility (words)” value [2] of the same compound?
**A.** further reduction in susceptibility

**Q.** What about the “susceptibility” value [3] of the same compound?
**A.** reduced susceptibility to both ddI and ddC
